How the values were obtained:
AAAs = settings: apolipoprotein E-deficient murine model; cited from earlier work
MMP-2 = MMP-2 activity in conditioned media of IL-1β stimulated male RASMCs; assay type: cell-based, rat; settings: 1×10^−10 to 1×10^−6 molar, with IL-1β
Protocol: Experiment I: Adult male and female rat aortic smooth muscle cells (RASMCs) were grown in Dulbecco's modified Eagle medium (DMEM) with 10% fetal bovine serum (FBS). RASMCs at passages four through eight were stimulated in serum-free media for 48 hours with IL-1β at doses encountered in human aortic aneurysms (2 ng/mL). The culture media was collected, and mRNA was extracted from the RASMCs. After reverse transcription to cDNA, gene expression of MMP-2 and TIMP-2 (a major MMP-2 inhibitor) was measured by real-time polymerase chain reaction. MMP-2 protein levels in conditioned media were measured by Western blotting, with MMP-2 and TIMP-2 activity quantified by standard and reverse gelatin zymography. Experiment II: Male RASMCs were incubated in DMEM containing 17-β-estradiol and IL-1β, MMP-2 activity in the conditioned media was then determined.

MMP-9 [1] = assay: Aortic MMP-9 immunohistochemistry, ED-1 colocalization and quantitative PCR; assay type: in vivo, Sprague-Dawley rats
Description: In other experiments, male rats were randomized to implantation of an estrogen pellet or sham implantation (n=13, each). The former involved the subcutaneous implantation of a 21-day slow-release 0.1-mg 17-β-estradiol pellet (Innovative Research of America, Sarasota, Fla.) in the posterior neck. Sham rats underwent the same implantation procedure without insertion of any pellet. This particular estradiol dose results in serum estradiol levels at 2 to 3 weeks of 44.7±6.1 pg/mL compared with 15.0±2.2 pg/mL in control rats (P<0.05). Rat aortas from both groups were subjected to elastase perfusion 5 days later. The aortas were then removed for study 7 or 14 days after elastase perfusion.
Immunohistochemistry was undertaken after deparaffinization, rehydration, and unmasking using Trilogy (Cell Marque Corp, Hot Springs, Ariz.) in a Princess model pressure cooker (Cell Marque). Endogenous peroxidase activity was then blocked using 3% hydrogen peroxide in methanol. To help ensure that rejection was not occurring in elastase-perfused or transplanted animals, anti-T lymphocyte immunohistochemistry was performed. Specifically, antirat CD3 monoclonal antibody (BD Pharmingen, San Diego, Calif.) was used as the primary antibody and mouse IgG Vectastain (Vector Laboratories, Burlingame, Calif.) as the secondary antibody. Rat spleen was used as the positive control for anti-CD3 staining. […]
Expression of MMP-9 and β-actin mRNA was determined using quantitative PCR. […] The resultant cDNA was amplified by Taq Polymerase (Promega, Madison, Wis.) in a SmartCycler quantitative PCR system (Cepheid, Sunnyvale, Calif.). […]
MMP-9 forward primer, CGCCAACTATGACCAGGATA (SEQ ID NO: 1); MMP-9 reverse primer, GTT GCC CCC AGT TAC AGT (SEQ ID NO: 2); β-actin forward primer, ATGGGTCAGAAGGATTCCTATGTG (SEQ ID NO: 3); β-actin reverse primer, CTTCATGAGGTAGTCAGTCAGGTC (SEQ ID NO: 4). […] Quantification of mRNA levels used ΔCt values, calculated by the formula: […]
Expression of the target gene in ratio to β-actin expression was calculated by the formula: […]

MMP-9 [2] = assay: MMP-9 activity (zymography) in media of IL-1β stimulated aortic explants from pretreated male rats; assay type: in vivo, Sprague-Dawley rats; settings: male rats treated 3 weeks with 0.1 mg 21-day extended release pellet, IL-1β stimulation; control 75.3, p<0.03
Protocol: Zymography supplies were purchased from Novex. MMP distribution after treatment of RASMC with IL-1β and increasing concentrations of 17-β-estradiol was determined. Gelatin substrate zymograms were prepared using precast 10% SDS-polyacrylamide gels containing 1 mg/mL of gelatin. Equal volumes of experimental media samples were diluted into 2× tris-glycine SDS sample buffer and electrophoretically separated under nonreducing conditions. Proteins were renatured in 2.7% Triton X-100, and the gels were incubated overnight at 37° C. in 50 mmol/L tris-HCl containing 5 mmol/L CaCl2 and 2% Brij 35. After overnight staining with Coomassie blue R-250 and de-staining for 4 hours with 10% acetic acid and 40% methanol in water, gelatinase activity was evident by clear bands against a dark blue background. Male Sprague-Dawley rats (190 g to 210 g) were obtained from Charles River Laboratories. Subcutaneous neck implantation of a 21-day slow release 0.1 mg 17-β-estradiol pellet (Innovative Research of America) was performed under general inhalational anesthesia. This particular estradiol dose results in serum estradiol levels at 2 to 3 weeks of 44.7±6.1 pg/mL compared with 15.0±2.2 pg/mL in control rats (p<0.05). Three weeks after pellet implantation, the infrarenal aorta was explanted under general anesthesia. […]

In the case of C[C@]12CC[C@@H]3c4ccc(O)cc4CC[C@H]3[C@@H]1CC[C@@H]2O [17-β-estradiol], the “development of AAAs” value (AAAs) is listed as “attenuate the development of AAAs”, the “MMP-2 activity in male RASMCs” value (MMP-2) is listed as “not altered” and the “aortic MMP-9 staining” value (MMP-9 [1]; immunohistochemistry, estradiol treated rats compared with sham rats) is listed as “less evident”. The “aortic MMP-9 mRNA expression” value (MMP-9 [1]; quantitative PCR normalized to β-actin, 7 days after elastase perfusion, sham 0.12±0.04, P=0.11) was 0.0017±0.004 mRNA copies, the “colocalization of aortic ED-1 and MMP-9” value (MMP-9 [1]; rats treated with estradiol compared with sham rats) was “less prominently stained cells” and the “MMP-9 activity in conditioned media of aortic explants” value (MMP-9 [2]) was 29.9 OD×10^3/mg protein.

— US20090082322A1, “Gender Differences in Experimental Aortic Aneurysm Formation” (THE REGENTS OF THE UNIVERSITY OF MICHIGAN, priority 2004, published 2009)
